Measured values published in US11129835B2, “Methods and compositions for the inhibition of PIN1” (Beth Israel Deaconess Medical Center, Inc., priority 2012, dated 2021).
Square brackets hold non-standard residues; d marks the D form. Peptide text beside a SMILES is read from it. pT = C[C@@H](OP(=O)(O)O)[C@H](N)C(=O)O; 2Nal = N[C@@H](Cc1ccc2ccccc2c1)C(=O)O; Bta = N[C@@H](Cc1csc2ccccc12)C(=O)O; Pip = O=C(O)[C@@H]1CCCCN1

Tests used:
full length Pin1 = target: T1, full length Pin1 (Homo sapiens, UniProt Q13526); experiment: single-step fluorescence polarization-based displacement assay (FP-HTS), 384-well, HF488 probe; type: binding; settings: for Pin1 inhibition in the FP assay: cis-RA compared with trans-RA
T1 construct: FP-HTS in a 384-well plate format with full length Pin1
Experimental: A high-throughput screen for identifying Pin1 inhibitors was developed using a single-step fluorescence polarization-based displacement assay (FP-HTS).
The FP-HTS with a 5 nM probe and 200 nM Pin1 was used to conduct a pilot screen on a selected set of chemical libraries.
(§1) The anti-cancer effect of RAs was examined to determine whether it depends on RAR in the breast cancer cells.

Pin1 [1] = target: T2, Pin1 (Homo sapiens, UniProt Q13526); experiment: PPIase assay; type: biochemical
From the text: The anti-cancer effect of RAs was examined to determine whether it depends on RAR in the breast cancer cells. […] In the PPIase assay, Pin1 activity was blocked by either cis- or trans-RA in a dose-dependent manner.

Pin1 and DAPK1 = Pin1 and DAPK1 (Homo sapiens, UniProt Q13526); experiment: association between Pin1 and DAPK1; type: binding
SKBR3 = experiment: cell viability of breast cancer cell lines; type: cell-based
From the text: (§2) This discrepancy between cell lines was correlated with the RAs' ability to suppress Pin1 expression. Pin1 level was decreased by treatment of RAs in drugs-responsive SKBR3 and T47D, but not in drugs-irresponsive normal cells, MCF10A, in which Pin1 target protein, cyclin D1, served as biomarker of in vivo Pin1 activity.

T47D = experiment: cell viability of breast cancer cell lines; type: cell-based
From the text: as §2

MCF10A = experiment: cell viability, normal cell line; type: cell-based
From the text: as §2

breast cancer cells = experiment: RARa knockdown rescue of cis-RA-mediated cell death; type: cell-based
From the text: as §1

[2] = tested on: Pin1 K63A, S67E, R68/69A, H59A or S71E; experiment: trans-RA binding to Pin1 point mutants
[3] = tested on: mouse embryonic fibroblast (WT MEF, Pin1 KO MEF); experiment: trans-RA-mediated cell viability in WT and Pin1 knockout MEF; type: cell-based
From the text: To further confirm this premise, wild-type mouse embryonic fibroblast (WT MEF) and Pin1 knockout MEF (Pin1 KO MEF) were used to test trans-RA-mediated cell viability.

Pin1 [4] = target: T2, Pin1; experiment: Pin1 fluorescence polarization competition assay with Tamra-probe (secondary); settings: for Emax: read-out: Tamra Secondary Efficacy
Experimental: An assay was developed for the identification of inhibitors of Pin1. […] Candidate compounds were screened in a concentration-titration series (e.g., 57 μM to 0.7 nM).
(§3) Pin1 (0.6 μM) was dispensed into black, solid 1536-well plates (32 rows by 48 columns) at 2 μL/well in Pin1 buffer (10 mM HEPES (pH 7.5), 10 mM NaCl, 0.01% Tween20, 1 mM DTT, and 1% glycerol). Next, 23 nL of compound or DMSO was delivered to each well using a pin tool (tip wash sequence: DMSO, IPA, MeOH, 3 s vacuum dry). Two μL of Pin1-1b-HiFluor488 peptide in buffer (10 mM HEPES (pH 7.5), 10 mM NaCl, 0.01% Tween20, 1 mM DTT, and 1% glycerol, 0.02 μM Pin1-1b-HiFluor488) or DMSO was then dispensed to each well using a pin tool (tip wash sequence: DMSO, IPA, MeOH, 3 s vacuum dry), and plates were incubated at room temperature for 10 min (Table 2). Each plate included controls with no candidate inhibitory compound (32 wells), with unlabeled Pin1-1c titration (3.5 mM to 0.020 mM in a 1:2 dilution series including 2 replicates per concentration; 32 wells), and without Pin1 (64 wells).
(§4) The fluorescence polarization signal of each well was measured on a ViewLux® plate reader using a 480/20 nm excitation filter and 540/25 nm S and P emission filters with a 20 second exposure with 2× binning (Table 2). Percent inhibitory activity was determined from corrected fluorescence polarization values.
(§5) Concentration-response curves were fitted to the signals arising from the resulting fluorescence polarization. The concentration-effect curves were then classified based on curve quality (r^2), response magnitude, and degree of measured activity. Compounds were subsequently categorized based on their curve class.
A further secondary assessment was accomplished by replacing the HiFluor-488-labeled probe with Tamra-probe, a red-shifted fluorophore.

Pin1 [5] = target: T2, Pin1; experiment: confirmatory Pin1 fluorescence polarization competition assay (Alexa488 reconfirmed); settings: for Emax: read-out: Alexa488 Reconfirmed Efficacy;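 for all read-outs here: Pin1 competition with a HiFluor488-labelled peptide probe, read as fluorescence polarization after 10 min at room temperature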
Experimental: (§6) The goal of this assay was to identify small-molecule inhibitors of Pin1 using a fluorescence polarization competition assay (FIG. 1). […] Candidate compounds were screened in a concentration-titration series (e.g., 57 μM to 0.7 nM).
as §3, §4, §5

Pin1 [6] = target: T2, Pin1; experiment: Pin1 fluorescence polarization competition assay, primary qHTS (HiFluor-488 / Alexa488 probe);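 note: Pin1 protein with fluorescent peptide probe, compound displacement read by fluorescence polarization, percent inhibition derived from corrected polarization values, concentration-response curves in 1536-well format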
Experimental: as §6, §3, §4, §5
Curves showing change polarized fluorescence may be categorized into 5 classes. Class 1 includes complete curves, having 2 asymptotes and an r^2 value of ≥0.9, with an efficacy of either >80% (class 1.1) or ≤80% (class 1.2). Class 1 curves may also be classified as noisy curves when efficacy is >80% and r^2<0.9 (class 1.3) or when efficacy is ≤80% and r^2<0.9 (class 1.4). Class 2 includes incomplete curves having 1 asymptote and an r^2 value of either >0.9 (subclass a) or <0.9 (subclass b), with an efficacy of either >80% (class 2.1) or ≤80% (class 2.2). Class 2 curves may also be classified as noisy curves when efficacy is >80% and r^2<0.9 (class 2.3) or when efficacy is ≤80% and r^2<0.9 (class 2.4). Class 3 includes single point activity curves having 1 asymptote and an efficacy >3 SD from the mean activity of the sample field at the highest tested concentration. […] A fifth class captures any curves not otherwise classified (FIG. 4).

[7] = Alexa488 Primary Potency, primary qHTS
[8] = Average HTS Potency, average over Alexa488 primary, Alexa488 reconfirmed and Tamra secondary assays
[9] = read-out: Alexa488 Primary Efficacy

T1 sequence (Q13526 whole entry): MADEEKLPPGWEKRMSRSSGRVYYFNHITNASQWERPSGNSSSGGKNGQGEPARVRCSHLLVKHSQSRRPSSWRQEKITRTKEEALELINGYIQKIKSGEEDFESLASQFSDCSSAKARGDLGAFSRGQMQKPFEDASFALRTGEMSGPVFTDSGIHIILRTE
T2 sequence (Q13526 whole entry): as above
Sequence of Pin1 and DAPK1 (Q13526 whole entry): as above

Row | IC50 (Pin1 [4]) | Emax (Pin1 [4]) | IC50 (Pin1 [5]) | Emax (Pin1 [5]) | IC50 (Pin1 [6]; [7]) | IC50 (Pin1 [6]; [8]) | Emax (Pin1 [6]; [9]) | Emax (Pin1 [6]; read-out: Average HTS Efficacy) | Compound | Pin1 inhibition in the FP assay (full length Pin1) | Pin1 activity in the PPIase assay (Pin1 [1]) | association between Pin1 and DAPK1 (Pin1 and DAPK1) | IC50, cell viability (SKBR3) | IC50, cell viability (T47D) | cell viability (MCF10A) | also measured
1 | 11 µM | 75% | 9 µM | 112% | 38 µM | 19 µM | 26% | 71% | O=C(NC(Cc1ccccc1)C(=O)O)/C(=C\c1ccco1)NC(=O)c1ccccc1 (centres unmarked) [Compound 35] | – | – | – | – | – | – | Tamra Secondary Curve Class (Pin1 [4]; Tamra-probe): 2.2 (≤80% (class 2.2))
2 | 8 µM | 85% | 1 µM | 59% | 21 µM | 10 µM | 71% | 72% | COc1ccccc1Nc1ccc2c(O)cc(S(=O)(=O)O)cc2c1 [Compound 14] | – | – | – | – | – | – | Alexa488 Reconfirmed Curve Class (Pin1 [5]; confirmatory retest): 1.2 (≤80% (class 1.2)); Alexa488 Primary Curve Class (Pin1 [6]; primary qHTS): 1.2 (≤80% (class 1.2))

The next lines start with the compound.

Row | Compound | IC50 (Pin1 [4]) | Emax (Pin1 [4]) | IC50 (Pin1 [5]) | Emax (Pin1 [5]) | IC50 (Pin1 [6]; [7]) | IC50 (Pin1 [6]; [8]) | Emax (Pin1 [6]; [9]) | Emax (Pin1 [6]; read-out: Average HTS Efficacy) | Pin1 inhibition in the FP assay (full length Pin1) | Pin1 activity in the PPIase assay (Pin1 [1]) | association between Pin1 and DAPK1 (Pin1 and DAPK1) | IC50, cell viability (SKBR3) | IC50, cell viability (T47D) | cell viability (MCF10A) | also measured
3 | C[C@@H](OP(=O)(O)O)[C@H](NC(=O)[C@@H](N)Cc1csc2ccccc12)C(=O)N1CCCC[C@H]1C(=O)N[C@@H](Cc1ccc2ccccc2c1)C(=O)O [pTide, Bth-L-phos.Thr-Pip-Nal] (H-[Bta][pT][Pip][2Nal]-OH; N-terminus and C-terminus assumed) | – | – | – | – | – | – | – | – | – | – | – | – | – | – | displacement of HF488 probe from Pin1 (full length Pin1): displaced HF488 probe from Pin1; Kd (full length Pin1; four residue core structure (pTide) of the HF488 fluorescent probes): 0.258 µM
4 | CC1=C(/C=C/C(C)=C/C=C/C(C)=C\C(=O)O)C(C)(C)CCC1 [cis-RA, 13-cis-retinoic acid] | – | – | – | – | – | – | – | – | eventually catch up with trans-RA in the long-term incubation with Pin1 | blocked | blocked the association between Pin1 and DAPK1 in a dose-dependent manner | nano-molar range | nano-molar range | remained unaffected | pilot screen hit ranking by Z-score (full length Pin1; 5 nM probe and 200 nM Pin1): top inhibitory chemical; cell death after RARa knockdown (breast cancer cells): only partially rescue
5 | CC1=C(/C=C/C(C)=C/C=C/C(C)=C/C(=O)O)C(C)(C)CCC1 [trans-RA, all-trans retinoic acid] | – | – | – | – | – | – | – | – | even more prominent Pin1 inhibition than cis-RA | blocked | blocked the association between Pin1 and DAPK1 in a dose-dependent manner, with trans being more potent | nano-molar range | nano-molar range | remained unaffected | binding to Pin1 point mutants [2]: completely or significantly abolished; cell viability, Pin1 KO MEF versus WT MEF [3]: Pin1 KO MEF was more resistant to trans-RA than WT MEF; cell viability, Pin1 KO MEF re-expressing Pin1 ([3]; stably expressing WT Pin1 or W34 K63A Pin1 mutant): Pin1 KO MEF stably expressing WT Pin1, but not W34 K63A Pin1 mutant, enabled cells to re-sensitize trans-RA
